This is an account of results in patent US11427615B2, “Peptide compound and application thereof, and composition containing peptide compound” (XDCEXPLORER (SHANGHAI) CO., LTD., priority 2017, dated 2022).

Non-standard residues stand in square brackets, D forms with d. Residues, ends and D or L forms follow the SMILES beside them. *: point of attachment. C18 diacid = O=C(O)CCCCCCCCCCCCCCCCC(=O)*; Oic = O=C(O)[C@@H]1C[C@@H]2CCCC[C@@H]2N1; PEG8 = NCCOCCOCCOCCOCCOCCOCCOCCOCCC(=O)O; Pro(4,4-F2) = O=C(O)[C@@H]1CC(F)(F)CN1; dAla(2-furyl) = N[C@H](Cc1ccco1)C(=O)O; Arg(Me) = CNC(=N)NCCC[C@H](N)C(=O)O; Palmitoyl = CCCCCCCCCCCCCCCC(=O)*; Hyp = O=C(O)[C@@H]1C[C@@H](O)CN1; Ac6c = NC1(C(=O)O)CCCCC1; AEEA = NCCOCCOCC(=O)O; azaGly = NNC(=O)O

In data set [1] the target is T1, human kiss1 receptor (GPR54) (Homo sapiens, UniProt Q969F8).
T1 construct: host or cells: NFAT-bla CHO-K1 cells (Chinese hamster ovary), purchased recombinant cell line
T1 sequence (Q969F8 whole entry): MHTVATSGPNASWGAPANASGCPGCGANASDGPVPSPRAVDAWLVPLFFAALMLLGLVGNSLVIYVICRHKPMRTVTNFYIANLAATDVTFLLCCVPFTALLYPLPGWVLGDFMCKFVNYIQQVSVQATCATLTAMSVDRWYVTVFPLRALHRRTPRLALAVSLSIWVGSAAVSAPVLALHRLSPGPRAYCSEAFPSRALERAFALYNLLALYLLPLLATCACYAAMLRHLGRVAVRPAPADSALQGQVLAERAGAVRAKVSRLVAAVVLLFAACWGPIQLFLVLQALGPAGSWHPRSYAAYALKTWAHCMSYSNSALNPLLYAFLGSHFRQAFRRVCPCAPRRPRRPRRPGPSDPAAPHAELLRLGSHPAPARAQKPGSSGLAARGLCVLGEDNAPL
The data set is described as follows: Kiss1 receptor (GPR54) binding activity of agonists, FRET detection in NFAT-bla CHO-K1 cells. As to conditions: GPR54; measured according to the method of effect Embodiment 1; preliminary data; read-out: Preliminary measurement data (GPR54) EC50. The class given is cell-based.

A short description of data set [2]: Plasma stability, LC-MS/MS. The class given is in vitro ADME. As to conditions: rat plasma, 37° C., final concentration 500 ng/ml, time points 0 minutes, 1, 2 and 4 hours; calculated half-life; read-out: Rat plasma (T½ (h)) (converted). On the procedure:
Effect Embodiment 2 Experimental Data on Plasma Stability of Some Compounds
1. Preparation of 50 mM Phosphate Buffer:
The 5.750 g Na2HPO4, 1.141 g NaH2PO4. and 4.095 g NaCl (Shanghai Titan) weighed was dissolved in 1000 mL ultrapure water and the pH was adjusted to 7.4 to give 50 mM phosphate buffer containing 70 mM NaCl. The prepared phosphoric acid buffer solution was stored in the refrigerator at 4° C. and was valid for one week.
2. Preparation of compound stock solution:
1). 5 mg/mL of test compound: 5 mg of compound was weighted and dissolved in 1 mL of DMSO.
2). 20 mM control: 2.728 mg of Fuka was dissolved in 0.5 mL of DMSO. 3.878 mg of benzalkonium bromide was dissolved in 0.5 mL of DMSO (Amresco).
3. Preparation of experimental plasma:
The frozen plasma (human: Shanghai wise chemistry; Rats and mice: Shanghai Sciple-Bikai; Dogs and monkeys: Suzhou Xishan Zhongke) were taken out of the −80° C. refrigerator, immediately placed in a 37° C. water bath, slightly shaken to melt it, then the thawed plasma was poured into a centrifuge tube, centrifuged at 3000 rpm for 8 min, and the supernatant was taken for experiments. The pH value of plasma was detected by a pH Meter & Sensor (METTLER TOLEDO). Only plasma with a pH value between 7.4 and 8 was used in the experiment. The plasma was placed on an ice bath for later use.
4. Preparation of administration solution:
1). 125 µg/ml test compound solution: 5 μL of 5 mg/mL test compound (see step 2) was added into 195 μL DMSO; 500 μM control solution: 20 mM control stock solution (see step 2) was added to 195 μL DMSO.
2). 0.5% BSA phosphate buffer solution: 0.05 g BSA was added to 10 mL phosphate buffer solution (see step 1);
3). 5 µg/ml of test compound administration solution: 40 μL of 125 μg/mL of test compound solution was added into 960 μL 0.5% BSA phosphate buffer solution, stirred and mixed evenly, and the administration solution was preheated in a 37° C. water bath for 5 minutes.
20 μM reference substance administration solution: 40 μL of 500 μM reference substance administration solution was added into 960 μL 0.5% BSA phosphate buffer solution, stirred and mixed evenly, and the administration solution was preheated in a 37° C. water bath for 5 minutes.
5. 10 μL of 5 μg/mL of the test compound and 20 μM of the control substance administration solution were respectively added to the wells set at different time points (0 minutes, 1 hour, 2 hours and 4 hours) on the 96-well plate, and the number of duplicate samples was 3.
6. 500 μL of ACN (IS) containing 5% FA was added to the well set at 0 minute hour, then 90 μL of plasma was added, after mixing, sealing film was pasted and placed at 4° C. (number of duplicate samples was 3).
7. 90 μL of plasma was added to the wells with set time points of 1 hour, 2 hours and 4 hours respectively, the number of duplicate samples was 3, and timing was started (the final concentration of the test compound was 500 ng/ml; The control was 2 μM).
9. All samples (0 minutes, 1 hour, 2 hours and 4 hours) at different time points on a 96-well plate were shaken for 10 minutes at 600 rpm/min on an oscillator (MTS 2/4, IKA), and then the samples were centrifuged for 15 minutes at 5594×g in a centrifuge (Multifuge×3R, thermo Fisher).
10. 150 μL of supernatant was taken from the centrifuged sample and sent to LC-MS/MS for analysis (conventional polypeptide LC-MS/MS analysis method).

One may read the EC50 as the concentration at which the effect is half-maximal. Turning to `CCCCCCCCCCCCCCCC(=O)NCCOCCOCCOCCOCCOCCOCCOCCOCCC(=O)NCC(=O)NCC(=O)N[C@H](Cc1ccco1)C(=O)N1CC(F)(F)C[C@H]1C(=O)N[C@@H](CC(N)=O)C(=O)N[C@H](C(=O)N[C@@H](Cc1ccccc1)C(=O)NC1(C(=O)N[C@@H](CC(C)C)C(=O)N[C@@H](CCCNC(=N)NC)C(=O)N[C@@H](Cc2c[nH]c3ccccc23)C(N)=O)CCCCC1)[C@@H](C)O` [YA-220, Palm-PEG8-Gly-Gly-D-3Fua-Pro(diF)-Asn-Thr-Phe-A6c-Leu-Arg(Me)-Trp-NH2] ({Palmitoyl-PEG8}-GG[dAla(2-furyl)][Pro(4,4-F2)]NTF[Ac6c]L[Arg(Me)]W-NH2), the EC50 in data set [1] was found to be 0.023 nM. Besides, the half-life at 500 ng/ml in data set [2] was 59 h.
For `CNC(=N)NCCC[C@H](NC(=O)[C@H](CC(C)C)NC(=O)NNC(=O)[C@H](Cc1ccccc1)NC(=O)[C@@H](NC(=O)[C@H](CC(N)=O)NC(=O)[C@@H]1C[C@@H]2CCCC[C@@H]2N1C(=O)[C@@H](Cc1ccc(O)cc1)NC(C)=O)[C@@H](C)O)C(=O)N[C@@H](Cc1c[nH]c2ccccc12)C(N)=O` [YA-230, Ac-D-Tyr-Oic-Asn-Thr-Phe-azaGly-Leu-Arg(Me)-Trp-NH2] (Ac-[dY][Oic]NTF[azaGly]L[Arg(Me)]W-NH2) the same measures were 0.04 nM and 3.64 h.
As to `CCCCCCCCCCCCCCCC(=O)NCCOCCOCCOCCOCCOCCOCCOCCOCCC(=O)NCC(=O)NCC(=O)N[C@H](Cc1ccc(O)cc1)C(=O)N1C[C@H](O)C[C@H]1C(=O)N[C@@H](CC(N)=O)C(=O)N[C@H](C(=O)N[C@@H](Cc1ccccc1)C(=O)NC1(C(=O)N[C@@H](CC(C)C)C(=O)N[C@@H](CCCNC(=N)NC)C(=O)N[C@@H](Cc2c[nH]c3ccccc23)C(N)=O)CCCCC1)[C@@H](C)O` [YA-264, Palm-PEG 8-Gly-Gly-D-Tyr-Hyp-Asn-Thr-Phe-A6C-Leu-Arg(Me)-Trp-NH2] ({Palmitoyl-PEG8}-GG[dY][Hyp]NTF[Ac6c]L[Arg(Me)]W-NH2), the EC50 in data set [1] was found to be 0.029 nM. In addition, the half-life at 500 ng/ml in data set [2] was 13 h.
The like results for `CNC(=N)NCCC[C@H](NC(=O)[C@H](CC(C)C)NC(=O)NNC(=O)[C@H](Cc1ccccc1)NC(=O)[C@@H](NC(=O)[C@H](CC(N)=O)NC(=O)C1(NC(=O)[C@@H](Cc2ccco2)NC(C)=O)CCCCC1)[C@@H](C)O)C(=O)N[C@@H](Cc1c[nH]c2ccccc12)C(N)=O` [YA-271, Ac-(D-2Fua)-A6c-Asn-Thr-Phe-azaGly-Leu-Arg(Me)-Trp-NH2] (Ac-[dAla(2-furyl)][Ac6c]NTF[azaGly]L[Arg(Me)]W-NH2) were, in that order, 0.025 nM and 15.6 h.
Take `CNC(=N)NCCC[C@H](NC(=O)[C@H](CC(C)C)NC(=O)NNC(=O)[C@H](Cc1ccccc1)NC(=O)[C@@H](NC(=O)[C@H](CC(N)=O)NC(=O)[C@@H]1C[C@@H](O)CN1C(=O)[C@@H](Cc1ccc(O)cc1)NC(=O)COCCOCCNC(=O)COCCOCCNC(=O)CCCCCCCCCCCCCCCCC(=O)O)[C@@H](C)O)C(=O)N[C@@H](Cc1c[nH]c2ccccc12)C(N)=O` [YA-273, C 18 diacid-OEG-OEG-D-Tyr-Hyp-Asn-Thr-Phe-azaGly-Leu-Arg(Me)-Trp-NH2] ({C18 diacid-AEEA-AEEA}-[dY][Hyp]NTF[azaGly]L[Arg(Me)]W-NH2): the EC50 in data set [1] stood at 0.05 nM. Moreover, in data set [2], the half-life at 500 ng/ml was 166 h.
As to `CCCCCCCCCCCCCCCC(=O)NCCOCCOCCOCCOCCOCCOCCOCCOCCC(=O)NCC(=O)NCC(=O)N[C@H](Cc1ccc(O)cc1)C(=O)N1C[C@H](O)C[C@H]1C(=O)N[C@@H](CC(N)=O)C(=O)N[C@H](C(=O)N[C@@H](Cc1ccccc1)C(=O)N[C@H](Cc1ccco1)C(=O)N[C@@H](CC(C)C)C(=O)N[C@@H](CCCNC(=N)NC)C(=O)N[C@@H](Cc1c[nH]c2ccccc12)C(N)=O)[C@@H](C)O` [YA-288, Palm-PEG 8-Gly-Gly-D-Tyr-Hyp-Asn-Thr-Phe-(D-2Fua)-Leu-Arg(Me)-Trp-NH2] ({Palmitoyl-PEG8}-GG[dY][Hyp]NTF[dAla(2-furyl)]L[Arg(Me)]W-NH2), in data set [1], the EC50 stood at 0.018 nM. Also, the half-life at 500 ng/ml in data set [2] is 27.5 h.
